Marks after values point to notes of the source that are not given here.
How the values were obtained:
[1] = test system: high-fat diet induced ApoE-/-mice atherosclerosis model (aortic atherosclerotic plaque); experiment: Treatment of atherosclerosis: aortic plaque area in high-fat diet induced ApoE-/- mice, samples given for 4 weeks after 17 weeks of modeling; type: in vivo
Description: (§1) Wild type C57 mice were used as a normal control group, rosuvastatin was used as a positive drug, and the efficacy (i.e., treating effect) of the composition samples in resisting atherosclerosis was investigated in a high-fat diet induced ApoE-/-mice atherosclerosis model. An atherosclerosis model was established after 17 weeks of modeling, and a control group was fed with a common feed for 17 weeks. The sample administration group was continuously administered with the test samples for 4 weeks after 17 weeks of modeling, and thereafter the formation of aortic atherosclerotic plaque in the mice was observed, and the plaque area was measured after dissection to calculate the plaque percentage.
(§2) Wild type C57 mice were used as a normal control group, rosuvastatin and atorvastatin were used as positive drugs, and the efficacy (i.e., treating effect) of the composition mixed samples in resisting atherosclerosis was investigated in a high-fat diet induced ApoE-/-mice atherosclerosis model. An atherosclerosis model was established after 17 weeks of modeling, and a control group was fed with a common feed for 17 weeks. The sample administration group was continuously administered with the test samples for 4 weeks after 17 weeks of modeling, and thereafter the formation of aortic atherosclerotic plaque in the mice was observed, and the plaque area was measured after dissection to calculate the plaque percentage.
as §2, with “aspirin, clopidogrel, colchicine” for “rosuvastatin”, “probucol” for “atorvastatin”
as §1, with “the” for “the composition”
as §1, with “mice were dissected,” for “plaque area was measured after dissection”, “area (percentage).” for “percentage.”

[2] = test system: high-fat diet induced ApoE-/-mice atherosclerosis model (aortic atherosclerotic plaque); experiment: Prevention of atherosclerosis: aortic plaque area in high-fat diet induced ApoE-/- mice, samples given during 12 weeks of modeling; type: in vivo; conditions: dose 1.67 mg/kg
Description: An atherosclerosis model (namely, model group) was established after 12 weeks of modeling, and a control group (namely normal group) was fed with a common feed for 12 weeks. […] An atherosclerosis model (namely, model group) was established after 12 weeks of modeling, and a control group (namely normal group) was fed with a common feed for 12 weeks.

[3] = Table 6, treatment, drug alone 16.7 mg/kg
[4] = Table 5, treatment, drug alone 1.67 mg/kg
[5] = Table 5, treatment, drug alone 3.33 mg/kg
[6] = Table 6, treatment, drug alone 12.5 mg/kg
[7] = Table 6, treatment, drug alone 0.167 mg/kg
[8] = Table 6, treatment, drug alone 83.5 mg/kg
[9] = Table 2, treatment, 4 weeks, dose 1.67 mg/kg
[10] = Table 4, treatment, 4 weeks, dose 1.67 mg/kg
[11] = Table 5, treatment, drug alone 0.83 mg/kg
[12] = Table 7, treatment, dose 1.67 mg/kg
[13] = Table 8, treatment, dose 1.67 mg/kg
[14] = Table 9, treatment, dose 1.67 mg/kg

In the case of `CC(=O)Oc1ccccc1C(=O)O` [aspirin], the “Inhibition rate compared to the model %” value [1, 3] is reported as 33.74% and the Plaque area % [1, 3] is reported as 29.91%*.
For `CC(C)c1c(C(=O)Nc2ccccc2)c(-c2ccccc2)c(-c2ccc(F)cc2)n1CC[C@@H](O)C[C@@H](O)CC(=O)O` [atorvastatin], the “Inhibition rate compared to the model %” value [1, 4] was 18.76%, the Plaque area % [1, 4] was 32.99%* and the “Inhibition rate compared to the model %” value [1, 5] was 28.47%. It also gave a Plaque area % [1, 5] of 29.05%*.
For `COC(=O)[C@H](c1ccccc1Cl)N1CCc2sccc2C1` [clopidogrel], the “Inhibition rate compared to the model %” value [1, 6] was 32.76% and the Plaque area % [1, 6] was 30.35%*.
With `COc1cc2c(c(OC)c1OC)-c1ccc(OC)c(=O)cc1[C@@H](NC(C)=O)CC2` [colchicine] the “Inhibition rate compared to the model %” value [1, 7] was 25.12% and the Plaque area % [1, 7] was 33.80%*.
For `CC(C)(Sc1cc(C(C)(C)C)c(O)c(C(C)(C)C)c1)Sc1cc(C(C)(C)C)c(O)c(C(C)(C)C)c1` [probucol], the “Inhibition rate compared to the model %” value [1, 8] was 21.91% and the Plaque area % [1, 8] was 35.25%*.
With `CC(C)c1nc(N(C)S(C)(=O)=O)nc(-c2ccc(F)cc2)c1/C=C/[C@@H](O)C[C@@H](O)CC(=O)O` [rosuvastain, rosuvastatin] the “Inhibition rate compared to the model %” value [1, 9] was 38.69%, the Plaque area % [1, 9] was 26.10%* and the “Inhibition rate compared to the model %” value [1, 10] was 34.77%. The Plaque area % [1, 10] was 25.87%**, the “Inhibition rate compared to the model %” value [1, 11] was 16.97% and the Plaque area % [1, 11] was 33.72%*. The “Inhibition rate compared to the model %” value [1, 4] was 31.40%, the Plaque area % [1, 4] was 27.86%* and the “Inhibition rate compared to the model %” value [1, 12] was 34.77%. The Plaque area % [1, 12] was 25.87%**, the “Inhibition rate compared to the model %” value [1, 13] was 38.69% and the Plaque area % [1, 13] was 26.10%*. For the same molecule, the “Inhibition rate compared to the model %” value [1, 14] was 42.69%, the Plaque area % [1, 14] was 27.94%** and the “Inhibition rate compared to the model %” value ([2]; Table 1, prevention) was 36.61%. For the same molecule, the Plaque area % ([2]; Table 1, prevention) was 20.93%**, the “Inhibition rate compared to the model %” value ([2]; Table 3, prevention) was 30.61% and the Plaque area % ([2]; Table 3, prevention) was 24.82%.
